Converted amounts (≈) assume the structure as drawn.
Legend:
[1] = biological target: PehS of soft-rot bacteria MAFF301393 strain (PehS-209-484) (Pectobacterium carotovorum subsp. carotovorum, UniProt Q9ZIN8); assay: PehS histidine kinase activity inhibitory test; format: biochemical, Erwinia carotovora subsp. carotovora MAFF301393; settings: for inhibitory activity against PehS (in words): summary of Table 2
Experimental: Signamycin A and signamycin B were measured for enzyme inhibitory activity against PehS of soft-rot bacteria MAFF301393 strain (Erwinia carotovora subsp. carotovora MAFF301393).
(§1) The histidine kinase activity was measured according to the method reported in Biosci. Biotechnol. Biochem., 64, 919-923, 2000.
A DNA fragment encoding a region containing only the kinase activity domain of […] (i.e., a region containing the 209th amino acid to the 484th amino acid from the N-terminus) was prepared through PCR from the chromosomal DNA of the soft-rot bacteria MAFF301393 strain, and was cloned into the expression vector pET21a (+). The thus-obtained plasmid pET-pehScM2-2 was used to transform Escherichia coli cells. The culture liquid of the thus-transformed strain was treated to purify a protein expressing only the histidine kinase activity domain of PehS (PehS-209-484).
The reaction solution having the following formulation was used for measuring histidine kinase activity: 4 μM PehS-209-484, 50 mM Tris-HCl (pH 8.5), 100 mM KCl, 100 mM NH4Cl and 5 mM MgCl2. A 2.5 μM ATP-10 μCi [γ-^32P] ATP mixture was added to the reaction solution to initiate the reaction so that the total amount was adjusted to 10 μL. The resultant mixture was incubated at 30° C. for 20 min. After termination of the reaction, SDS-polyacrylamide gel electrophoresis was performed. For measuring inhibitory activity, signamycin A or signamycin B was added to the reaction solution before the addition of the ATP mixture so as to have a predetermined concentration, followed by incubating at 30° C. for 5 min, to thereby determine the 50% inhibitory concentration (IC50) with respect to PehS of soft-rot bacteria.

[2] = system: Enterococcus faecalis JCM 5803; assay: Antimicrobial activity (MIC), agar multiple dilution method; format: cell-based; settings: JCM5803, Muller Hinton agar, 37° C., 18 hrs.
Experimental: (§2) According to the standard method of Japanese Society of Chemotherapy, signamycin A and signamycin B were measured for antimicrobial spectrum against various microorganisms including drug-resistant bacteria (methicilline resistant bacteria and vancomycin resistant bacteria) on the Muller Hinton agar medium by the multiple dilution method.

[3] = system: E. faecium NCTC 12202 (VRE, vanA); assay: as above; format: cell-based; settings: Enterococcus faecium, 18 h
Experimental: as §2

[4] = system: Bacillus subtilis NRRL B-558; assay: as above; format: cell-based; settings: NRRLB558, Muller Hinton agar, 37° C., 18 hrs.
Experimental: as §2

[5] = system: M. luteus PCI 1001; assay: as above; format: cell-based; settings: Micrococcus luteus, PCI1001, Muller Hinton agar, 37° C., 18 hrs.
Experimental: as §2

[6] = system: S. aureus Smith; assay: as above; format: cell-based; settings: Staphylococcus aureus, Muller Hinton agar, 37° C., 18 hrs.
Experimental: as §2

[7] = system: E. faecalis NCTC 12201 (VRE, vanA); assay: as above; format: cell-based; settings: Enterococcus faecalis, 18 h
Experimental: as §2

[8] = system: E. faecium JCM 5804; assay: as above; format: cell-based; settings: Enterococcus faecium, JCM5804, Muller Hinton agar, 37° C., 18 hrs.
Experimental: as §2

[9] = system: B. subtilis PCI 219; assay: as above; format: cell-based; settings: Bacillus subtilis, PCI219, Muller Hinton agar, 37° C., 18 hrs.
Experimental: as §2

[10] = system: Mycobacterium smegmatis ATCC607; assay: as above; format: cell-based; settings: Mycolicibacterium smegmatis, Muller Hinton agar, 37° C. 42 hrs.
Experimental: as §2

[11] = system: S. aureus MRSA No. 17 (MRSA); assay: as above; format: cell-based; settings: Staphylococcus aureus, 18 h
Experimental: as §2

[12] = system: E. faecalis NCTC 12203 (VRE, vanA); assay: as above; format: cell-based; settings: Enterococcus faecalis, 18 h
Experimental: as §2

[13] = system: Micrococcus luteus FDA 16; assay: as above; format: cell-based; settings: FDA16, Muller Hinton agar, 37° C., 18 hrs.
Experimental: as §2

[14] = system: B. cereus ATCC 10702; assay: as above; format: cell-based; settings: Bacillus cereus, ATCC10702, Muller Hinton agar, 37° C., 18 hrs.
Experimental: as §2

[15] = system: M. luteus IFO 3333; assay: as above; format: cell-based; settings: Micrococcus luteus, IFO3333, Muller Hinton agar, 37° C., 18 hrs.
Experimental: as §2

[16] = system: Pseudomonasu aeruginosa A3; assay: as above; format: cell-based; settings: 18 h
Experimental: as §2

[17] = system: S. aureus TY-04282 (MRSA); assay: as above; format: cell-based; settings: Staphylococcus aureus, 18 h
Experimental: as §2

[18] = system: Escherichia coli NIHJ; assay: as above; format: cell-based; settings: Muller Hinton agar, 37° C., 18 hrs.
Experimental: as §2

[19] = system: E. faecium NTCTC 12204 (VRE, vanA); assay: as above; format: cell-based; settings: Enterococcus faecium, 18 h
Experimental: as §2

[20] = system: S. aureus MS16526 (MRSA); assay: as above; format: cell-based; settings: Staphylococcus aureus, 18 h
Experimental: as §2

[21] = system: S. aureus MS9610 (MDR); assay: as above; format: cell-based; settings: Staphylococcus aureus, 18 h
Experimental: as §2

[22] = system: Staphylococcus aureus FDA 209P; assay: as above; format: cell-based; settings: FDA209P, Muller Hinton agar, 37° C., 18 hrs.
Experimental: as §2

[23] = system: Corynebacterium bovis 1810; assay: as above; format: cell-based; settings: Muller Hinton agar, 37° C., 18 hrs.
Experimental: as §2

[24] = system: S. aureus MRSA No. 5 (MRSA); assay: as above; format: cell-based; settings: Staphylococcus aureus, 18 h
Experimental: as §2

[25] = system: Staphylococcus aureus (S. aureus); assay: Antimicrobial activity, summary in words for the species; format: cell-based; settings: summary of Table 1
Experimental: as §2

[26] = biological target: VicK of caries bacteria (VicK-31-450) (Streptococcus mutans, UniProt Q8DT64); assay: VicK histidine kinase activity inhibitory test; format: biochemical; settings: VicK-31-450, [32P]ATP, 25° C.
VicK of caries bacteria (VicK-31-450), sequence (Q8DT64 entry or part of it): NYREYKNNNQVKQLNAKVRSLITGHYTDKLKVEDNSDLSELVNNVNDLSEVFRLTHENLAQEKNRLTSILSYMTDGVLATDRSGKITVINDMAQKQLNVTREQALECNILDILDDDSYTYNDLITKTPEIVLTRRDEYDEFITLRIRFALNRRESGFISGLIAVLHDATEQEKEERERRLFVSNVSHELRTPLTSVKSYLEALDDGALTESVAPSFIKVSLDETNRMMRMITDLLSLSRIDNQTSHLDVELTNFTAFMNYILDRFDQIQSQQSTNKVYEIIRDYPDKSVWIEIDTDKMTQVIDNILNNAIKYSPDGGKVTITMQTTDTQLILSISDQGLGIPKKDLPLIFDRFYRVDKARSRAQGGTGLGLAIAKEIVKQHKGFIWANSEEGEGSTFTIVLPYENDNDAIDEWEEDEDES
Experimental: Signamycin A and signamycin B were measured for enzyme inhibitory activity against VicK of caries bacteria (Streptococcus mutans).
The histidine kinase activity was measured by a modified method of the method reported in Biosci. Biotechnol. Biochem., 64, 919-923, 2000.
A DNA fragment encoding a region containing only the kinase activity domain of VicK (i.e., a region containing the 31th amino acid to the 450th amino acid from the N-terminus) was prepared through PCR from the chromosomal DNA of the caries bacteria, and was cloned into the expression vector pET21a (+). The thus-obtained plasmid pET-SMvicK31-450 was used to transform Escherichia coli cells. The culture liquid of the thus-transformed strain was treated to purify a protein expressing only the histidine kinase activity domain of VicK (VicK-31-450).
The reaction solution having the following formulation was used for measuring histidine kinase activity: […] VicK-31-450, 50 mM Tris-HCl (pH 7.5), 50 mM KCl and 10 mM MgCl2. Signamycin A or signamycin B (1 μL) was added to the reaction solution (7 μl), followed by incubating at 25° C. for 5 min. Subsequently, 2 μL of 12.5 µM ATP containing [^32P]ATP was added to the reaction mixture (final concentration: […]) to initiate the reaction, followed by incubating at 25° C. for 20 min. […]

[27] = biological target: T1, YycG of Bacillus subtilis 168 strain (YycG-204-611) (Bacillus subtilis, UniProt Q45614); assay: YycG histidine kinase activity inhibitory test; format: biochemical; settings: YycG-204-611, [γ-32P]ATP, 30° C.
T1 construct: a region containing the 204th amino acid to the 611th amino acid from the N-terminus; made in house; host or cells: Escherichia coli
T1 sequence (Q45614 204-611): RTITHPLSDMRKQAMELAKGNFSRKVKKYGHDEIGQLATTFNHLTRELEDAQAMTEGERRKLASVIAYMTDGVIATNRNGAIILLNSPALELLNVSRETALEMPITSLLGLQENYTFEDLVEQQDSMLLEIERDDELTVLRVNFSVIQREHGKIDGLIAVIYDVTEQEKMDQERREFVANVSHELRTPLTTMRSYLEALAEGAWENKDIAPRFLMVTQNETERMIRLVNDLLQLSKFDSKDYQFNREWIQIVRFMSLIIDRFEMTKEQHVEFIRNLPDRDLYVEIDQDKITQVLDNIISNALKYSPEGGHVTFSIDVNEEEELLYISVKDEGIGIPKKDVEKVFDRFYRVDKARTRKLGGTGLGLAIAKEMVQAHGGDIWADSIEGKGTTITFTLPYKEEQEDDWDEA
Experimental: Signamycin A and signamycin B were measured for enzyme inhibitory activity against YycG of Bacillus subtilis 168 strain (B. subtilis 168).
as §1
A DNA fragment encoding a region containing only the kinase activity domain of […] (i.e., a region containing the 204th amino acid to the 611th amino acid from the N-terminus) was prepared through PCR from the chromosomal DNA of the Bacillus subtilis 168 strain, and was cloned into the expression vector pET21a (+). The thus-obtained plasmid pET-yycGtru was used to transform Escherichia coli cells. The culture liquid of the thus-transformed strain was treated to purify a protein expressing only the histidine kinase activity domain of YycG (YycG-204-611).
The reaction solution having the following formulation was used for measuring histidine kinase activity: 0.5 μM YycG-204-611, 50 mM Tris-HCl (pH 8.5), 100 mM KCl, 100 mM NH4Cl and 5 mM MgCl2. A 2.5 μM ATP-10 μCi [γ-^32P]ATP mixture was added to the reaction solution to initiate the reaction so that the total amount was adjusted to 10 μL. The resultant mixture was incubated at 30° C. for 10 min. After termination of the reaction, SDS-polyacrylamide gel electrophoresis was performed. […]

[28] = system: Enterococcus (E. faecalis and E. faecium); assay: Antimicrobial activity, summary in words for the genus; format: cell-based; settings: summary of Table 1
Experimental: as §2

PehS of soft-rot bacteria MAFF301393 strain (PehS-209-484), sequence (Q9ZIN8 entry or part of it): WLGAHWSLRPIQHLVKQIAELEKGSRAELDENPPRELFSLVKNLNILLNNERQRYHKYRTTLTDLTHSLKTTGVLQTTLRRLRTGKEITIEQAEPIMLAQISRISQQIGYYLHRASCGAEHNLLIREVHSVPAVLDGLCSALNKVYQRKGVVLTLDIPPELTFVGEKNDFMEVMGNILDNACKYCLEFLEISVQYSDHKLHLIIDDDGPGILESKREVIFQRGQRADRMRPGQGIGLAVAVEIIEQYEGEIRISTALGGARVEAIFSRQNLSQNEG

SMILES | IC50 [1] [µM] | inhibitory activity against PehS (in words) [1] | MIC [2] [µg/mL] | MIC [3] [µg/mL] | MIC [4] [µg/mL] | MIC [5] [µg/mL] | MIC [6] [µg/mL] | MIC [7] [µg/mL] | MIC [8] [µg/mL] | MIC [9] [µg/mL] | MIC [10] [µg/mL] | MIC [11] [µg/mL] | MIC [12] [µg/mL] | MIC [13] [µg/mL] | MIC [14] [µg/mL] | MIC [15] [µg/mL] | MIC [16] [µg/mL] | MIC [17] [µg/mL] | MIC [18] [µg/mL] | MIC [19] [µg/mL] | further results
CCC1C(C)=CC2CC(C)C(O)C(CC)C2C1/C(O)=C1/C(=O)NC(C)C1=O (stereo not drawn) [Signamycin A, signamycin A] | 33.6 | strong inhibitory activity | 16 (≈ 42.6 µM) | 16 (≈ 42.6 µM) | 4 (≈ 10.7 µM) | 8 (≈ 21.3 µM) | 8 (≈ 21.3 µM) | 16 (≈ 42.6 µM) | 8 (≈ 21.3 µM) | 4 (≈ 10.7 µM) | 32 (≈ 85.2 µM) | 8 (≈ 21.3 µM) | 8 (≈ 21.3 µM) | 8 (≈ 21.3 µM) | 4 (≈ 10.7 µM) | 8 (≈ 21.3 µM) | > 100 | 8 (≈ 21.3 µM) | 32 (≈ 85.2 µM) | 8 (≈ 21.3 µM) | MIC [20]: 8 µg/mL (≈ 21.3 µM); MIC [21]: 8 µg/mL (≈ 21.3 µM); MIC [22]: 4 µg/mL (≈ 10.7 µM); MIC [23]: 8 µg/mL (≈ 21.3 µM); MIC [24]: 8 µg/mL (≈ 21.3 µM); antimicrobial activity against Staphylococcus aureus (in words) [25]: high antimicrobial activity; IC50 [26]: 239 µM; IC50 [27]: 138 µM
CCCC1C(C)=CC2CC(C)C(O)C(CC)C2C1/C(O)=C1/C(=O)NC(C)C1=O (stereo not drawn) [Signamycin B, signamycin B] | 15.7 | strong inhibitory activity | 8 (≈ 20.5 µM) | 8 (≈ 20.5 µM) | 4 (≈ 10.3 µM) | 4 (≈ 10.3 µM) | 4 (≈ 10.3 µM) | 8 (≈ 20.5 µM) | 8 (≈ 20.5 µM) | 4 (≈ 10.3 µM) | 64 (≈ 164 µM) | 4 (≈ 10.3 µM) | 8 (≈ 20.5 µM) | 4 (≈ 10.3 µM) | 2 (≈ 5.13 µM) | 4 (≈ 10.3 µM) | > 100 | 4 (≈ 10.3 µM) | 64 (≈ 164 µM) | 8 (≈ 20.5 µM) | antimicrobial activity against Enterococcus (in words) [28]: high antimicrobial activity; MIC [20]: 4 µg/mL (≈ 10.3 µM); MIC [21]: 4 µg/mL (≈ 10.3 µM); MIC [22]: 4 µg/mL (≈ 10.3 µM); MIC [23]: 8 µg/mL (≈ 20.5 µM); MIC [24]: 4 µg/mL (≈ 10.3 µM); antimicrobial activity against Staphylococcus aureus (in words) [25]: high antimicrobial activity; IC50 [26]: 62.2 µM; IC50 [27]: 43 µM
